The structures appear in SMILES notation. Where two headings read alike, the source gives them in different places.

Here are results for 32 compounds from patent publication US5281710A, “Dynemicin analogs: synthesis, methods of preparation and use” (The Scripps Research Institute, priority 1992, dated 1994).

In one series the test system is cancer cell lines. In words: cells. The format is cell-based. The note with it: for cytotoxicity (qualitative): cancer cell lines. The procedure: (§1) In addition to the screening already discussed, several of the before-described compounds and chimeras were screened against several or all of a panel of ten to twenty-five cancerous cell lines as target cells and seven "normal" cell preparations. This screening utilized a sulforhodamine B cytotoxidity assay as discussed below.
SULFORHODAMINE B CYTOTOXICITY ASSAY
a. Stock drug solutions were prepared by dissolving drug in the appropriate solvent (determined during chemical characterization studies) and sterile filtering the drug-solvent solution through a sterile 0.2μ filter unit. An aliquot was taken from each filtered drug solution and the O.D. was measured to determine the drug concentration.
f. Incubate (37° C., 5-10 percent CO2 in humidified incubator) plates for a total of 72 hours. Check plates at 24 hour intervals microscopically for signs of cytotoxicity.
(§2) IC50 values; i.e., the concentration of Compound required to kill one-half of the treated cells, were then calculated.
All other cells or cell lines were obtained from the American Type Culture Collection (ATCC) (all except CHO cells are human or mouse cancer cell lines as described by the ATC).
Tables 1 and 2 herein below provide average IC50 data from five to all ten of the above cancer cells lines for fused ring enediyne compounds disclosed herein. Those tables provide a generic structure and a description of the R group of that generic structure for each compound. Compound numbers as noted hereinbefore are also provided. Table 3 contains data for two fused-ring enediyne compounds (Compounds 47 and 120) as well as data for six chimers. Table 4 contains cancer cell and noraml cell cytotoxicity data for one select fused ring enediyne, Compound 153 against a number of "normal" cell preparations and tumor cell lines. Table 5 contains cancer cell and normal cell cytotoxicity data for another fused ring enediyne, Compound 250 against a similar panel of cells.

Series [1] concerns MOLT-4 (Leukemia) cell line. In words: cells. The format is cell-based. To be noted: for potency against Molt-4 relative to the other cell lines: Molt-4 vs average of other cell lines; for IC50: read-out: IC50. Here is the method:
as §1, §2

The next series concerns φX174 Form I DNA. In words: φX174 supercoiled DNA cleavage, agarose gel. The format is biochemical. Here is the method:
The ethereal solution of Compound 40 produced by the LiAlH4 reduction of Compound 21 (39 mg, 0.10 mmol) was evaporated in vacuo to dryness and the residue dissolved in THF (4 mL) to give a 25 mM solution of Compound 40, assuming complete conversion of Compound 21. […]
Thus, a vial containing a 50 micromolar per base pair solution […] of the same buffer solution and 2.0 microliters of a 5.0 millimolar ethanol solution of Compound 40.
[…] A 2.0 microliter portion of glycerol loading buffer solution containing bromothymol blue indicator was added to each vial. A 10 microliter aliquot was then drawn from each. Gel electrophoresis analysis of the aliquots was performed using a 1.0 percent agarose gel with ethidium bromide run at 115 volts for 1 hour. DNA cleavage was indicated by the formation of nicked relaxed circular DNA (form II) or linearized DNA (form III), which was detected by visual inspection of the gel under 310 nanometer ultraviolet light using ethidium bromide.

A further series in a line: Chemical stability. Type of series: physicochemical.
Where [2] appears, read: Average data obtained from 5~10 cell lines, read-out: IC50 (average).
Where [3] appears, read: 5.0 mM, pH 8.5, 36 hours, 37° C.

In general, IC50 refers to the concentration at which inhibition is half-maximal. Regarding `CC(C)(C)C(=O)Oc1ccc2c(c1)N(C(=O)Oc1ccccc1)C1C#C/C=C\C#CC3CCCC14OC234` (centres unmarked) [Compound 59b], the IC50 in the series on cancer cell lines (setting [2]) turned out to be 0.2 µM. Also, in series [1], the “potency against Molt-4 relative to the other cell lines” value was 10,000 times. In addition, in the series on φX174 Form I DNA (setting [3]), the DNA cleavage result was “inert”.
Regarding `O=C(OCCSc1ccccc1)N1c2ccccc2[C@@]23O[C@]24CCC[C@H]3C#C/C=C\C#C[C@H]14` (relative stereo) [Compound 21a], the IC50 in the series with cancer cell lines (setting [2]) came to 63 µM.
For the compound `CCNC1COC(OC2C(OCCOC34C#CC=CC#CC5N(C(=O)OCCS(=O)(=O)c6ccccc6)c6ccccc6C36OC56CCC4)OC(C)C(=NOC3CC(O)C(SC(=O)c4c(C)c(I)c(OC5OC(C)C(O)C(OC)C5O)c(OC)c4OC)C(C)O3)C2O)CC1OC` (centres unmarked) [Compound 126a], the concentration for half-maximal inhibition (IC50) in the series with cancer cell lines (setting [2]) was 44 µM.
As for `COc1ccc2c(c1)C13OC14CCCC3C#C/C=C\C#CC4N2C(=O)OCCS(=O)(=O)c1ccccc1` (centres unmarked) [Compound 41b], the half-inhibitory concentration (IC50) with cancer cell lines (setting [2]) was found to be 0.25 µM. In addition, in series [1], the “potency against Molt-4 relative to the other cell lines” value is on record as 10,000 times.
Turning to `O=C(OCC[S+]([O-])c1ccccc1)N1c2ccccc2[C@@]23O[C@]24CCC[C@H]3C#C/C=C\C#C[C@H]14` (relative stereo) [Compound 21b], in the series on cancer cell lines (setting [2]), the IC50 was 32 µM.
Regarding `C1#CC2Nc3ccccc3C34OC23CCCC4C#Cc2cc3ccccc3cc21` (centres unmarked) [Compound 87a], in “Chemical stability”, the chemical stability result is “stable at 25 °C”.
For the compound `O=C(OCCSc1ccccc1)N1c2ccccc2[C@@]23O[C@]24CCC[C@H]3C#Cc2cc3ccccc3cc2C#C[C@H]14` (relative stereo) [Compound 88], the IC50 in the series with cancer cell lines (setting [2]) is 50 µM.
Same read-out and setting: the value for `CO[C@]12C#C/C=C\C#C[C@@H]3N(C(=O)Oc4ccccc4)c4ccccc4[C@]14O[C@@]34CCC2` (relative stereo) [Compound 46] was 63 µM.
`CC(=O)Oc1ccc2c(c1)N(C(=O)Oc1ccccc1)C1C#C/C=C\C#CC3(OC(C)=O)CCCC14OC234` (centres unmarked) [Compound 202]: the DNA cleavage entry in the series with φX174 Form I DNA (setting [3]) is given as “inert”.
With `O=C(Oc1ccccc1)N1c2ccccc2[C@@]23O[C@]24CCC[C@@]3(O)C#Cc2cc3ccccc3cc2C#C[C@H]14` (relative stereo) [Compound 85], in the series on cancer cell lines (setting [2]), the half-inhibitory concentration (IC50) turned out to be 20 µM.
With `CCNC1COC(OC2C(OCCOC34C#CC=CC#CC5N(C(=O)OCCS(=O)(=O)c6ccccc6)c6ccccc6C36OC56CCC4)OC(C)C(NOC3CC(O)C(SC(=O)c4c(C)c(I)c(OC5OC(C)C(O)C(OC)C5O)c(OC)c4OC)C(C)O3)C2O)CC1OC` (centres unmarked) [Compound 127a], the IC50 turned out to be 0.14 µM with cancer cell lines (setting [2]) and 0.001 µM in series [1] (Molt-4 leukemia cell line). Further, in the series on cancer cell lines, the “cytotoxicity (qualitative)” value is “particularly effective”. Besides, the “potency against Molt-4 relative to the other cell lines” value in series [1] was “about 100 times”.
As for `CCNC1COC(OC2C(OCCOC34C#CC=CC#CC5N(C(=O)OCCS(=O)(=O)c6ccccc6)c6ccccc6C36OC56CCC4)OC(C)C(=NOC3CC(O)C(SC(=O)c4c(C)c(I)c(OC5OC(C)C(O)C(OC)C5O)c(OC)c4OC)C(C)O3)C2O)CC1OC` (centres unmarked) [Compound 126b], the half-maximal inhibitory concentration (IC50) with cancer cell lines (setting [2]) worked out at 8.7 µM.
Same read-out and setting: then `O=C(Oc1ccccc1)N1c2ccccc2[C@@]23O[C@]24CCC[C@@]3(O)C#Cc2ccccc2C#C[C@H]14` (relative stereo) [Compound 74], with 20 µM; and `O=C(Oc1ccccc1)N1c2ccccc2C23OC24CCCC3C#Cc2ccccc2C#CC14` (centres unmarked) [Compound 76], with 7.9 µM.
Turning to `COc1cccc2c1C(=O)c1c(O)c3c(c(O)c1C2=O)C[C@@](O)(C(=O)CO)C[C@@H]3O[C@H]1C[C@H](N)[C@H](O)[C@H](C)O1` [Doxorubicin, reference compound], the IC50 in the series with cancer cell lines (cancer cells, control drugs, read-out: Range of Average IC50 Values, Cancer Cells) fell in the range of 0.00016 to 0.098 µM.
With `CC(=O)O[C@]12C#C/C=C\C#C[C@@H]3N(C(=O)Oc4ccccc4)c4cc(O)ccc4[C@]14O[C@@]34CCC2` (relative stereo) [Compound 171], in the series with φX174 Form I DNA (pH 8.5, 24 or 48 hours, 37° C.), the DNA cleavage entry is given as “strong activity”.
On to `COC(=O)COC12C#C/C=C\C#CC3N(C(=O)Oc4ccccc4)c4ccccc4C14OC34CCC2` (centres unmarked) [Compound 24b], for which, in the series on cancer cell lines (setting [2]), the concentration for half-maximal inhibition (IC50) came out at 5 µM.
As to `CC(C)(C)C(=O)Oc1ccc2c(c1)N(C(=O)Oc1ccccc1)C1C#C/C=C\C#CC3(O)CCCC14OC234` (centres unmarked) [Compound 59a], the IC50 with cancer cell lines (setting [2]) was 0.79 µM; in series [1] (Homo sapiens, MOLT-4, Molt-4 leukemia cell line) it was 0.098 µM. Besides, in the series on φX174 Form I DNA (setting [3]), the DNA cleavage entry was “inert”.
On to `COC12C#C/C=C\C#CC3Nc4ccccc4C14OC34CCC2` (centres unmarked) [Compound 48], for which the chemical stability entry in the series “Chemical stability” is given as “quite stable under basic or neutral conditions”.
As for `CC(=O)OC12C#C/C=C\C#CC3N(C(=O)Oc4ccccc4)c4cc(O)ccc4C14OC34CCC2` (centres unmarked) [Compound 201], in the series on φX174 Form I DNA (setting [3]), the DNA cleavage result is “significant DNA cleaving action”.
As for `O=C(OCCS(=O)(=O)c1ccccc1)N1c2ccccc2[C@@]23O[C@]24CCC[C@H]3C#Cc2cc3ccccc3cc2C#C[C@H]14` (relative stereo) [Compound 80], the 50% inhibitory concentration (IC50) with cancer cell lines (setting [2]) came to 1.6 µM. The “cytotoxicity (qualitative)” value with cancer cell lines is given as “potent anticancer activity against a variety of cell lines”. Also, the DNA cleavage result with φX174 Form I DNA (basic conditions, pH 9.0) was “exhibited DNA cleaving properties”.
Regarding `O=C(Oc1ccccc1)N1c2ccccc2C23OC24CCCC3C#Cc2cc3ccccc3cc2C#CC14` (centres unmarked) [Compound 87], in the series with cancer cell lines (setting [2]), the IC50 amounted to 3.2 µM.
As to `COC12C#C/C=C\C#CC3N(C(=O)Oc4ccccc4)c4cc(O)ccc4C14OC34CCC2` (centres unmarked) [Compound 55], the DNA cleavage entry in the series with φX174 Form I DNA (5 mM, pH 8.0, 24 hours) is recorded as “diminished activity against DNA”.
Regarding `COc1ccc2c(c1)C13OC14CCCC3C#C/C=C\C#CC4N2C(=O)OCCS(=O)(=O)c1ccc2ccccc2c1` (centres unmarked) [Compound 41d], the IC50 in the series on cancer cell lines (setting [2]) was 0.13 µM. The “potency against Molt-4 relative to the other cell lines” value in series [1] was 10,000 times.
In the case of `COc1ccc2c(c1)C13OC14CCCC3C#C/C=C\C#CC4N2C(=O)OCCS(=O)(=O)c1cccc2ccccc12` (centres unmarked) [Compound 41c], in the series with cancer cell lines (setting [2]), the IC50 is 0.2 µM. Besides, in series [1], the “potency against Molt-4 relative to the other cell lines” value is recorded as 10,000 times.
Regarding `O=C(OCCSc1ccccc1)N1c2ccccc2[C@@]23O[C@]24CCC[C@H]3C#Cc2ccccc2C#C[C@H]14` (relative stereo) [Compound 77], in the series with cancer cell lines (setting [2]), the 50% inhibitory concentration (IC50) came out at 36 µM.
Take `C=CS(=O)(=O)c1ccccc1` [phenyl vinyl sulfone, reference compound]: the DNA cleavage entry in the series with φX174 Form I DNA (1.0 mM) is listed as “no DNA cleavage”; with φX174 Form I DNA (5.0 mM, pH 8.5 and 9.0, 48 hours, 37° C.), “Form II DNA”.
With `O=C(OCCS(=O)(=O)c1ccccc1)N1c2ccccc2C23OC24CCCC3(OCCO)C#C/C=C\C#CC14` (centres unmarked) [Compound 120], in the series with cancer cell lines (setting [2]), the IC50 turned out to be 40 µM.
On to `O=C(OCCS(=O)(=O)c1ccccc1)N1c2ccccc2[C@@]23O[C@]24CCC[C@H]3C#Cc2ccccc2C#C[C@H]14` (relative stereo) [Compound 70], for which the concentration for half-maximal inhibition (IC50) with cancer cell lines (setting [2]) came out at 3.2 µM. Moreover, in the series with cancer cell lines, the “cytotoxicity (qualitative)” value is “potent anticancer activity against a variety of cell lines”. For the same compound, the DNA cleavage entry in the series with φX174 Form I DNA (basic conditions, pH 9.0) is on record as “exhibited DNA cleaving properties”.
`COc1ccc2c(c1)[C@@]13O[C@]14CCC[C@H]3C#C/C=C\C#C[C@@H]4N2C(=O)Oc1ccccc1` (relative stereo) [Compound 41a]: in the series with cancer cell lines (setting [2]), the IC50 was determined as 20 µM.
`COC12C#C/C=C\C#CC3N(C(=O)OCCS(=O)(=O)c4ccccc4)c4ccccc4C14OC34CCC2` (centres unmarked) [Compound 47]: the half-inhibitory concentration (IC50) in the series with cancer cell lines (setting [2]) stood at 5 µM. In the series with φX174 Form I DNA (5 mM, pH 8.0, 24 hours), the DNA cleavage entry was “diminished activity against DNA”.
For the compound `CCNC1COC(OC2C(OCCOC34C#CC=CC#CC5N(C(=O)OCCS(=O)(=O)c6ccccc6)c6ccccc6C36OC56CCC4)OC(C)C(NOC3CC(O)C(SC(=O)c4c(C)c(I)c(OC5OC(C)C(O)C(OC)C5O)c(OC)c4OC)C(C)O3)C2O)CC1OC` (centres unmarked) [Compound 127b], the IC50 in the series with cancer cell lines (setting [2]) was 7.6 µM; in series [1] (Molt-4 leukemia cell line), 0.0001 µM. Also, in the series on cancer cell lines, the “cytotoxicity (qualitative)” value was “particularly effective”.
